# Test results published in patent US12492173B2, “Herbicidal substituted N-tetrazolyl aryl carboxamides” (Bayer Aktiengesellschaft, priority 2019, dated 2025).
# Tests used:
# Type in all cases: in vivo
# Viola tricolor = experiment: Pre-emergence herbicidal action, VIOTR; settings: dosage 320 g/ha, scored visually after 3 weeks vs untreated controls (100% = plants have died)
# Method in brief: (§1)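 Greenhouse pre-emergence test: formulated compound (WP or EC) applied in water to the soil covering sown seeds, 600–800 l/ha, 0.2% wetting agent. Scored visually in percent at 3 weeks versus untreated plants.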
# Veronica persica = experiment: Post-emergence herbicidal action, VERPE; set-up: key: % herbicidal action vs untreated; 100 = plants died, 0 = like control
# Method in brief: (§2)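 Greenhouse weeds grown in sandy loam were sprayed at the one-leaf stage, 2–3 weeks after sowing, with WP or EC formulations at 600–800 l/ha water plus 0.2% wetting agent. Damage scored visually about 3 weeks later, in percent against untreated controls (100% = plants dead).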
# Stellaria media [1] = experiment: Pre-emergence herbicidal action, STEME; settings: dosage 320 g/ha, scored visually after 3 weeks vs untreated controls (100% = plants have died)
# Method in brief: as §1
# Matricaria inodora [2] = experiment: Pre-emergence herbicidal action, MATIN; set-up: key to Herbicidal action against MATIN: % activity: 100 = plants have died, 0 = like control plants; settings: for herbicidal activity MATIN: dosage 320 g/ha, scored visually after 3 weeks vs untreated controls (100% = plants have died)
# Method in brief: as §1
# Stellaria media [3] = experiment: Post-emergence herbicidal action, STEME; set-up: key: % herbicidal action vs untreated; 100 = plants died, 0 = like control
# Method in brief: as §2
# Matricaria inodora [4] = experiment: Post-emergence herbicidal action, MATIN; set-up: key: % herbicidal action vs untreated; 100 = plants died, 0 = like control
# Method in brief: as §2
# [5] = comparative experiment, post-emergence, 5 g of a.i./ha
Structure (SMILES),herbicidal activity VIOTR (Viola tricolor) [%],"herbicidal action VERPE (Veronica persica; post-emergence, dosage 80 g/ha) [%]",herbicidal activity STEME (Stellaria media [1]) [%],"Herbicidal action against MATIN (Matricaria inodora [2]; comparative experiment, 20 g of a.i./ha)",herbicidal activity MATIN (Matricaria inodora [2]) [%],"herbicidal action STEME (Stellaria media [3]; post-emergence, dosage 80 g/ha) [%]","herbicidal action MATIN (Matricaria inodora [4]; post-emergence, dosage 80 g/ha) [%]",herbicidal action VERPE (Veronica persica; Dosage 80 g/ha),herbicidal action STEME (Stellaria media [3]; Dosage 80 g/ha),herbicidal action MATIN (Matricaria inodora [4]; Dosage 80 g/ha),Herbicidal action against VERPE (Veronica persica; [5]),"Herbicidal action against VERPE (Veronica persica; post-emergence, dosage 80 g/ha)","Herbicidal action against STEME (Stellaria media [3]; post-emergence, dosage 80 g/ha)",Herbicidal action against MATIN (Matricaria inodora [4]; [5]),"Herbicidal action against MATIN (Matricaria inodora [4]; post-emergence, dosage 80 g/ha)"
Cn1nnnc1NC(=O)c1ccc(C(F)(F)F)c(C[S+](C)[O-])c1Cl (racemic) [Example 1-297],100,100,90,100,100,100,100,–,–,–,–,–,–,–,–
Cc1c(C(=O)Nc2nnnn2C)ccc(C(F)(F)F)c1C[S+](C)[O-] (stereo not shown) [Example 1-84],100,100,100,–,100,100,100,–,–,–,–,–,–,–,–
Cc1c(C(=O)Nc2nnnn2C)ccc(C(F)(F)F)c1CS(C)(=O)=O [Example 1-85],100,–,100,–,100,–,–,100,100,100,–,–,–,–,–
CCSCc1c(C(F)(F)F)ccc(C(=O)Nc2nnnn2C)c1C [Example 1-86],100,90,–,–,100,100,100,–,–,–,–,–,–,–,–
"CSCc1c(C(F)F)ccc(C(=O)Nc2nnnn2C)c1C [Example 1-107, 4-(difluoromethyl)-2-methyl-3-[(methylsulfanyl)methyl]-N-(1-methyl-1H-tetrazol-5-yl)benzamide]",90,–,90,–,100,–,–,100,100,90,–,–,–,–,–
Cc1c(C(=O)Nc2nnnn2C)ccc(C(F)F)c1CS(C)(=O)=O [Example 1-109],100,–,–,–,90,–,–,100,100,100,–,–,–,–,–
COc1c(C(=O)Nc2nnnn2C)ccc(C(F)(F)F)c1CSC [Example 1-134],100,–,–,–,100,–,–,100,100,100,100,100,90,90,100
CSCc1c(C(F)(F)F)ccc(C(=O)Nc2nnnn2C)c1SC [Example 1-161],100,–,100,–,100,–,–,100,100,100,–,–,–,–,–
CCSCc1c(C(F)F)ccc(C(=O)Nc2nnnn2C)c1SCC [Example 1-191],100,–,100,–,100,–,–,100,100,90,–,–,–,–,–
CSCc1c(C(F)(F)F)ccc(C(=O)Nc2nnnn2C)c1F [Example 1-242],100,–,90,–,100,–,–,100,100,90,–,–,–,–,–
Cn1nnnc1NC(=O)c1ccc(C(F)(F)F)c(C[S+](C)[O-])c1F (stereo not shown) [Example 1-243],100,–,90,–,100,–,–,100,100,100,–,–,–,–,–
Cn1nnnc1NC(=O)c1ccc(C(F)(F)F)c(CS(C)(=O)=O)c1F [Example 1-244],100,–,90,–,100,–,–,100,100,100,–,–,–,–,–
Cc1ccc(C(=O)Nc2nnnn2C)c(Cl)c1CS(C)(=O)=O [Example 1-289],90,–,90,–,100,–,–,100,100,100,–,–,–,–,–
CSCc1c(C(F)(F)F)ccc(C(=O)Nc2nnnn2C)c1Cl [Example 1-296],100,100,100,–,100,100,100,–,–,–,–,–,–,–,–
Cn1nnnc1NC(=O)c1ccc(C(F)(F)F)c(CS(C)(=O)=O)c1Cl [Example 1-298],100,100,100,–,100,100,100,–,–,–,90,–,–,100,–
CCCn1nnnc1NC(=O)c1ccc(C(F)(F)F)c(CS(C)(=O)=O)c1OC [Example 3-136],100,–,100,–,100,–,–,100,100,–,–,–,–,–,–
CCCn1nnnc1NC(=O)c1ccc(C(F)F)c(C[S+]([O-])CC)c1Cl (stereo not shown) [Example 3-324],100,–,100,–,100,–,–,–,100,–,–,–,–,–,–
CCCn1nnnc1NC(=O)c1ccc(C(F)(F)F)c(CSC)c1Br [Example 3-380],100,–,–,–,100,–,–,80,100,100,–,–,–,–,–
